# Reference: the supplement of paper PMC11061612
# Assays:
# Assay in all cases: Bliss excess, mean over the matrix (fraction); higher = more synergy
# [1] = test system: Hs-633T (Other Solid Carcinomas)
# Outline: (§1)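 After 24 hours at 37°C and 5% CO2 in 1536-well plates, cells in DMEM/F12 or RPMI plus 10% FBS received two-drug dose matrices for 72 hours. Viability came from CellTiter-Glo 2.0 luminescence and was scaled as inhibition, anchored at 0 by vehicle wells and at 1 by blank wells. Combination Emax is taken as the second-highest inhibition in the matrix, and Bliss excess as the observed combination effect less EA + EB − EA·EB, with EA and EB the single-agent effects.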
# HMV-II (Melanoma) = test system: HMV-II (Melanoma)
# Outline: as §1
# [2] = test system: HO-1-u-1 (Oral Cavity Carcinoma)
# Outline: as §1
# [3] = test system: CAL-54 (Kidney Carcinoma)
# Outline: as §1
# [4] = test system: OC-314 (Ovarian Carcinoma)
# Outline: as §1
# NCI-H28 (Mesothelioma) = test system: NCI-H28 (Mesothelioma)
# Outline: as §1
# [5] = test system: CAPAN-1 (Pancreatic Carcinoma)
# Outline: as §1
# [6] = test system: PCI-30 (Head and Neck Carcinoma)
# Outline: as §1
# SH-4 (Melanoma) = test system: SH-4 (Melanoma)
# Outline: as §1
# NCI-H2795 (Mesothelioma) = test system: NCI-H2795 (Mesothelioma)
# Outline: as §1
# [7] = test system: MDA-MB-468 (Breast Carcinoma)
# Outline: as §1
# [8] = test system: RKO (Colorectal Carcinoma)
# Outline: as §1
# [9] = test system: SW1116 (Colorectal Carcinoma)
# Outline: as §1
# [10] = test system: LoVo (Colorectal Carcinoma)
# Outline: as §1
# [11] = test system: SU-DHL-6 (B-Cell Non-Hodgkin's Lymphoma)
# Outline: as §1
# [12] = test system: RT-112 (Bladder Carcinoma)
# Outline: as §1
# [13] = test system: SK-OV-3 (Ovarian Carcinoma)
# Outline: as §1
# [14] = test system: LU-139 (Small Cell Lung Carcinoma)
# Outline: as §1
# [15] = test system: SW1271 (Small Cell Lung Carcinoma)
# Outline: as §1
# [16] = test system: RPMI-6666 (Non-Cancerous)
# Outline: as §1
SMILES,Bliss excess [1],Bliss excess (HMV-II (Melanoma)),Bliss excess [2],Bliss excess [3],Bliss excess [4],Bliss excess (NCI-H28 (Mesothelioma)),Bliss excess [5],Bliss excess [6],Bliss excess (SH-4 (Melanoma)),Bliss excess (NCI-H2795 (Mesothelioma)),Bliss excess [7],Bliss excess [8],Bliss excess [9],Bliss excess [10],Bliss excess [11],Bliss excess [12],Bliss excess [13],Bliss excess [14],Bliss excess [15],Bliss excess [16]
"O=C(c1cc(Cc2n[nH]c(=O)c3ccccc23)ccc1F)N1CCN(C(=O)C2CC2)CC1 [Olaparib] + Cc1c2c(nn1C)CSCc1cc(n(C)n1)CSc1cc(c3ccccc3c1)OCCCc1c(C(=O)O)n(C)c3c-2c(Cl)ccc13 [AZD5991] (first compound max 10 µM, 7x7, partner max 1 µM)",-0.0037,-0.0561,-0.0224,-0.0272,-0.0142,-0.0349,-0.0392,-0.048,-0.0412,-0.0207,-0.0391,-0.0205,-0.0503,-0.0591,0.0065,0.0048,-0.06,-0.0263,-0.0523,0.017
"CN(CCO)CC[C@H](CSc1ccccc1)Nc1ccc(S(=O)(=O)NC(=O)c2ccc(N3CCC([C@@H](O)c4ccccc4-c4ccc(Cl)cc4)CC3)cc2)cc1S(=O)(=O)C(F)(F)F [AZD4320] + CC(=O)O[C@H]1C(=O)[C@@]2(C)[C@H]([C@H](OC(=O)c3ccccc3)[C@]3(O)C[C@H](OC(=O)[C@H](O)[C@@H](NC(=O)c4ccccc4)c4ccccc4)C(C)=C1C3(C)C)[C@]1(OC(C)=O)CO[C@@H]1C[C@@H]2O [Paclitaxel] (first compound max 1 µM, 7x7, partner max 3 µM)",0.0124,0.101,0.254,-0.0202,0.0084,0.0394,0.0823,0.177,0.0813,0.0621,0.0898,0.0012,-0.101,-0.0406,0.0083,0.0111,0.254,0.0242,0.108,0.017
"Cc1cc2ncnn2cc1Nc1ncc2c(n1)n(C1CCOCC1)c(=O)n2C [AZD7648] + COc1cc([C@@H]2c3cc4c(cc3[C@@H](O[C@@H]3O[C@@H]5CO[C@@H](C)O[C@H]5[C@H](O)[C@H]3O)[C@H]3COC(=O)[C@H]23)OCO4)cc(OC)c1O [Etoposide] (first compound max 10 µM, 7x7, partner max 10 µM)",0.174,0.0864,0.11,0.0605,0.152,0.0548,-0.0034,0.0768,0.0744,-0.0093,0.0376,0.135,-0.0028,0.0689,0.0914,0.17,-0.0497,0.101,0.0441,0.0224
"C[C@@H](Oc1cc(-c2cnn(C3CCNCC3)c2)cnc1N)c1c(Cl)ccc(F)c1Cl [Crizotinib] + CC1=C(C(=CC=C1)Cl)NC(=O)C2=CN=C(S2)NC3=CC(=NC(=N3)C)N4CCN(CC4)CCO [Dasatinib] (first compound max 10 µM, 7x7, partner max 2 µM)",0.0646,-0.104,-0.0488,-0.033,0.032,0.0073,-0.0481,0.0685,-0.0674,0.0277,0.0256,0.0106,0.0159,-0.121,-0.0146,0.0179,0.0301,-0.0489,0.0464,0.0471
"CC1(C)CCC(CN2CCN(c3ccc(C(=O)NS(=O)(=O)c4ccc(NCC5CCOCC5)c([N+](=O)[O-])c4)c(Oc4cnc5[nH]ccc5c4)c3)CC2)=C(c2ccc(Cl)cc2)C1 [Venetoclax] + CS(=O)(=O)CCNCc1ccc(-c2ccc3ncnc(Nc4ccc(OCc5cccc(F)c5)c(Cl)c4)c3c2)o1 [Lapatinib] (first compound max 1 µM, 7x7, partner max 10 µM)",-0.0041,-0.045,0.0094,-0.0788,0.0051,-0.0426,-0.0262,-0.0457,-0.0489,-0.058,-0.141,-0.0366,-0.0129,-0.0768,0.0481,-0.0371,-0.0032,-0.0061,-0.0239,0.0423
"N#Cc1cnc(Nc2cc(NC[C@H]3CNCCO3)c(C(F)(F)F)cn2)cn1 [SRA737] + O=c1[nH]cc(F)c(=O)[nH]1 [5-Fluorouracil] (first compound max 10 µM, 7x7, partner max 20 µM)",-0.0246,-0.0542,-0.0774,-0.0373,0.114,-0.0043,0.0479,0.0058,-0.0344,0.0744,-0.0199,0.0048,-0.033,0.0238,0.0498,0.0881,-0.0597,0.0169,-0.0472,-0.003
"O=C(c1cc(Cc2n[nH]c(=O)c3ccccc23)ccc1F)N1CCN(C(=O)C2CC2)CC1 [Olaparib] + CC1(C)CCC(CN2CCN(c3ccc(C(=O)NS(=O)(=O)c4ccc(NCC5CCOCC5)c([N+](=O)[O-])c4)c(Oc4cnc5[nH]ccc5c4)c3)CC2)=C(c2ccc(Cl)cc2)C1 [Venetoclax] (first compound max 10 µM, 7x7, partner max 1 µM)",-0.0018,-0.0468,-0.0275,-0.0496,-0.0124,-0.0273,-0.0564,-0.0425,-0.0355,-0.0329,-0.0372,-0.0151,-0.0429,-0.038,0.104,-0.0275,-0.0472,0.0408,-0.0258,0.134
"C[C@@H]1COCCN1c1cc(C2([S@](C)(=N)=O)CC2)nc(-c2ccnc3[nH]ccc23)n1 [AZD6738] + C1CC(C1)(C(=O)[O-])C(=O)[O-].N.N.[Pt+2] [Carboplatin] (first compound max 10 µM, 7x7, partner max 10 µM)",-0.0264,-0.0067,-0.074,-0.0355,-0.03,-0.0606,-0.0624,-0.0362,-0.057,-0.0819,-0.0511,-0.0594,-0.0483,-0.0743,-0.0174,-0.0217,-0.0788,0.0013,-0.0547,-0.0614
"C[C@@H]1COCCN1c1cc(C2([S@](C)(=N)=O)CC2)nc(-c2ccnc3[nH]ccc23)n1 [AZD6738] + Nc1ccn([C@@H]2O[C@H](CO)[C@@H](O)C2(F)F)c(=O)n1 [Gemcitabine] (first compound max 10 µM, 7x7, partner max 0.3 µM)",0.0444,-0.0112,0.061,0.0372,0.115,0.0086,-0.0254,0.0539,-0.0029,-0.0533,0.0233,-0.0088,0.0575,-0.0243,0.118,0.147,0.0331,0.0146,0.004,-0.034
"N#Cc1cnc(Nc2cc(NC[C@H]3CNCCO3)c(C(F)(F)F)cn2)cn1 [SRA737] + Nc1ccn([C@@H]2O[C@H](CO)[C@@H](O)C2(F)F)c(=O)n1 [Gemcitabine] (first compound max 10 µM, 7x7, partner max 0.3 µM)",0.0301,-0.0122,0.0492,-0.0458,0.108,0.0118,-0.0582,-0.0288,0.0138,-0.0258,0.0293,-0.0179,0.0727,-0.0137,0.101,0.178,0.0128,0.0091,0.0198,-0.0487
"C[C@@H](Nc1cc(F)cc(F)c1)c1cc(C(=O)N(C)C)cc2c(=O)cc(N3CCOCC3)oc12 [AZD8186] + C1CN(CCC1(C(=O)N[C@@H](CCO)C2=CC=C(C=C2)Cl)N)C3=NC=NC4=C3C=CN4 [AZD5363] (first compound max 10 µM, 7x7, partner max 10 µM)",-0.0205,-0.0515,-0.073,-0.0774,0.0624,-0.0165,-0.0755,-0.0443,-0.0317,-0.106,-0.0305,0.0284,-0.0429,-0.0372,0.0024,-0.0188,-0.064,-0.0299,-0.0388,-0.086
"C[C@@H](Nc1cc(F)cc(F)c1)c1cc(C(=O)N(C)C)cc2c(=O)cc(N3CCOCC3)oc12 [AZD8186] + CC(=O)c1c(C)c2cnc(Nc3ccc(N4CCNCC4)cn3)nc2n(C2CCCC2)c1=O [Palbociclib] (first compound max 10 µM, 7x7, partner max 10 µM)",0.05,0.0265,0.0138,0.0039,0.0774,-0.0333,-0.0559,0.0121,-0.0303,0.0582,-0.022,0.0559,-0.0352,-0.0314,0.0418,0.0396,-0.0454,-0.025,0.0035,-0.0073
"Cc1c2c(nn1C)CSCc1cc(n(C)n1)CSc1cc(c3ccccc3c1)OCCCc1c(C(=O)O)n(C)c3c-2c(Cl)ccc13 [AZD5991] + CS(=O)(=O)CCNCc1ccc(-c2ccc3ncnc(Nc4ccc(OCc5cccc(F)c5)c(Cl)c4)c3c2)o1 [Lapatinib] (first compound max 1 µM, 7x7, partner max 10 µM)",-0.008,-0.0587,0.0293,0.0368,0.0453,0.0147,-0.0147,0.0446,-0.01,-0.016,-0.0357,0.0196,-0.0369,-0.0052,0.0085,0.0426,0.0591,-0.0068,-0.0749,-0.1
"O=C(c1cc(Cc2n[nH]c(=O)c3ccccc23)ccc1F)N1CCN(C(=O)C2CC2)CC1 [Olaparib] + CN(CC[C@H](CSC1=CC=CC=C1)NC2=C(C=C(C=C2)S(=O)(=O)NC(=O)C3=CC=C(C=C3)N4CCC(CC4)[C@H](C5=CC=CC=C5C6=CC=C(C=C6)Cl)O)S(=O)(=O)C(F)(F)F)CCO [AZD4320] (first compound max 10 µM, 7x7, partner max 1 µM)",0.0017,-0.0537,0.0123,-0.0021,-0.0165,-0.0353,-0.0347,-0.0405,-0.0505,-0.0086,-0.043,-0.0252,-0.0404,-0.0225,0.0091,-0.0305,-0.0672,0.0154,-0.0291,0.0694
